Results from patent publication US11584763B2, “Chromenopyridine derivatives as phosphatidylinositol phosphate kinase inhibitors” (HIBERCELL, INC., priority 2017, dated 2023).

Legend:
PIP4K2B = molecular target: T1, PIP4K2B (Homo sapiens, UniProt P78356); assay: Trans-FI P kinase assay PIP4K2B (PIP4KtypeIIB inhibition assay); assay type: biochemical; conditions: compounds listed under IC50 bin headings; 100 uM GTP; read-out: Trans-FI P kinase assays: PIP4K2B IC50
T1 construct: made in house; host or cells: E. coli
T1 sequence (P78356 1-416): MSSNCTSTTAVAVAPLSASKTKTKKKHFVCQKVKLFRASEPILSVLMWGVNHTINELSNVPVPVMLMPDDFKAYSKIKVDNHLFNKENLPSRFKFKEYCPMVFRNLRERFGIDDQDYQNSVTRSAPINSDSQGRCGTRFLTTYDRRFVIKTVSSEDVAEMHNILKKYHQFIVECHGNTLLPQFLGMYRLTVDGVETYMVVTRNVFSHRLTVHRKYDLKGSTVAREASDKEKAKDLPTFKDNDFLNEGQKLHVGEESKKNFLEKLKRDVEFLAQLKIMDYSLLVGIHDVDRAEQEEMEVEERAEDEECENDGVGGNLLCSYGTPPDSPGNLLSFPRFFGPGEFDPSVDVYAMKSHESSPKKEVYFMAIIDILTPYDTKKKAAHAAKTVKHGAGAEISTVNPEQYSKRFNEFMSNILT
Text: GST tagged PIP4KtypeIIA and B enzymes were overexpressed in E. Coli and purified to >80% homogeneity. Phosphatidyl inositol-5-phosphate (PI5P, Cat. #850152, Avanti Polar Lipids Inc.) was used as the lipid substrate and phosphatidyl ethanolamine (DOPE 18:1, Cat. #850725, Avanti Polar Lipids Inc.) was used as the carrier lipid for assays. Ultrapure ATP and GTP was purchased from Bellbrooke Labs. ADP Glo reagents were obtained from Promega. Transcreener FI reagent was obtained from Bellbrooke labs.
GST-tagged PIP4KtypeIIB (3.4 uL, 2.77 mg/mL) was diluted to 5 mL using HNE buffer to yield 5× enzyme stock (25 nM)
Lipid Preparation: In a 10 mL pyrex glass vial, 1 ug of PI5P and 1 ug of DOPE were suspended in 2.5 mL of HEPES buffer mix and 2.5 mL of H:E buffer. The contents were mixed and sonicated for 3 min to yield a translucent lipid stock.
Compound Preparation: Compounds were stored as 5 mM stocks in neat DMSO as room temperature in glass vials. 5 mM stocks were diluted to 2 mM and then serially diluted (3×) in neat DMSO in 96 well polypropylene plates. From the serially diluted stocks, 3 uL was delivered into 250 uL of 25% DMSO (in water) to generate 5× compound stocks. Typically, the highest compound conc. was 24 uM.
The assay volume was kept at 25 uL. To each well of the reaction plate, 10 uL of lipid stock (1:1 ratio PI5P:DOPE) was delivered. This was followed by the addition of 5 uL of compound in 25% DMSO. Then, to each well, 5 uL of 25 nM (5×) typeIIB enzyme was delivered. The contents were mixed well and incubated for 1 h at 27 C. After 1 h, reaction was initiated by adding 5 uL of 500 uM GTP and the contents were mixed well with a multi-channel pipetteman. The final concentration of the reagents are as follows: 50 mM HEPES, pH 7.3, 10 mM MgCl2, 20 mM NaCl, 0.01% v/v triton-X100, 5% DMSO, 100 uM GTP, 80 uM (2 ug) PI5P, 2 ug DOPE, and 5 nM PIP4KIIB Typically, the highest conc. of compounds was 4.8 uM and the lowest conc. was 0.
After 2 h, the reaction was quenched by adding 25 uL of transcreener FI reagent. The contents were incubated at RT for 1 h and the Fluorescence (Ex: 584 Em: 623) was read using Molecular Devices Paradigm plate reader. […] The blanks were averaged and subtracted from all other wells. Using a calibration curve, RFU was converted to uM GDP (product). IC50 was calculated by plotting the residual activity (expressed as % No inhibitor control) vs. log [Inh. conc.]

PIP4K 2A = molecular target: T2, PIP4K 2A (Homo sapiens, UniProt P48426); assay: ADP-glo kinase assay PIP4K 2A; assay type: biochemical; design: 4 nM PIP4K2A (full length protein, SignalChem); purchased SignalChem; conditions: compounds listed under IC50 bin headings
T2 sequence (P48426 1-406): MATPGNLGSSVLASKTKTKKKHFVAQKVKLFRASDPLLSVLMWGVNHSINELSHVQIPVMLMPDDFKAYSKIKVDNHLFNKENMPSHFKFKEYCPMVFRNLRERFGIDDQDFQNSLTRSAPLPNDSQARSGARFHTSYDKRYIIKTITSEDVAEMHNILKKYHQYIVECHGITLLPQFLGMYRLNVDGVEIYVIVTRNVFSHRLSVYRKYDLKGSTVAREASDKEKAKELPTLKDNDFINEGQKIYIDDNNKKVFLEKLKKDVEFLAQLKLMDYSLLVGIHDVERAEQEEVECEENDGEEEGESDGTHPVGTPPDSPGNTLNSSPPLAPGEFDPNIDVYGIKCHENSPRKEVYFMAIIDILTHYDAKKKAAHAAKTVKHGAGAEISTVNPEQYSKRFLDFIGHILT
Method: Dilution series of the compounds were prepared in DMSO at 100 times the final assay concentration (n1=n0/3 in 10 points). The compounds were further diluted to three times the assay concentration in assay buffer (20 mM MOPS pH 7.2, 25 mM magnesium chloride, 0.005% Tween 20). 6 μL of the diluted compounds were added to a 384 well assay plate followed by 9 μL of a mix consisting of 4 nM PIP4K2A (full length protein, SignalChem) and 100 μM PI(5)P diC8 (Tebu-Bio). Enzyme and compounds were pre-incubated at room temperature for 15 minutes.
Then 3 μL of a solution containing 60 μM ATP (Promega) in assay buffer was added to the wells containing compound and enzyme and mixing was performed by pipetting several times. The reaction was incubated at room temperature for 1 h. Then 18 μL of ADP-Glo™ Reagent (Promega) was added to stop the kinase reaction and deplete the unconsumed ATP, mixing was performed by pipetting several times. The plate was incubated at room temperature for 40 minutes before addition of 36 μL of Kinase Detection Reagent (Promega) to convert ADP to ATP and introduce luciferase and luciferin to detect ATP. The reaction was incubated at room temperature for 40 minutes before the luminescence was measured in a in a Victor 3V 1420 multilabel counter (Perkin Elmer).
Percent inhibition of the compounds as compared to dimethyl sulfoxide treated control samples was calculated. Compound concentration versus percent inhibition were fitted to generate IC50 values.

SMILES | IC50 (PIP4K2B) | IC50 (PIP4K 2A)
CC1Oc2cc(N3CCCC3=O)ccc2-c2cnc(Nc3cncc(NC(=O)Cc4cnc5ccccn45)c3)cc21 (centres unmarked) [Example 145, 2-(imidazo[1,2-a]pyridin-3-yl)-N-(5-((5-methyl-8-(2-oxopyrrolidin-1-yl)-5H-chromeno[4,3-c]pyridin-3-yl)amino)pyridin-3-yl)acetamide] | 10 to 100 nM | 1 to 10 nM
CN(C)C/C=C/C(=O)Nc1cccc(CCC(=O)Nc2cncc(Nc3cc4c(cn3)-c3ccc(N5CCCC5=O)cc3OC4(C)C)c2)c1 [Example 199, (E)-N-(3-(3-((5-((5,5-dimethyl-8-(2-oxopyrrolidin-1-yl)-5H-chromeno[4,3-c]pyridin-3-yl)amino)pyridin-3-yl)amino)-3-oxopropyl)phenyl)-4-(dimethylamino)but-2-enamide] | 10 to 100 nM | 1 to 10 nM
CC1Oc2cc(N3CCCC3=O)ccc2-c2cnc(Nc3cncc(NC(=O)C4Cc5ccccc5O4)c3)cc21 (centres unmarked) [Example 142, N-(5-((5-methyl-8-(2-oxopyrrolidin-1-yl)-5H-chromeno[4,3-c]pyridin-3-yl)amino)pyridin-3-yl)-2,3-dihydrobenzofuran-2-carboxamide] | 100 to 1000 nM | 10 to 100 nM
CC1Oc2cc(N3CCCC3=O)ccc2-c2cnc(Nc3cncc(NC(=O)c4cc5ccccc5[nH]4)c3)cc21 (centres unmarked) [Example 141, N-(5-((5-methyl-8-(2-oxopyrrolidin-1-yl)-5H-chromeno[4,3-c]pyridin-3-yl)amino)pyridin-3-yl)-1H-indole-2-carboxamide] | 10 to 100 nM | 1 to 10 nM
CC1Oc2cc(N3CCCC3=O)ccc2-c2cncc(Nc3ccncc3)c21 (centres unmarked) [Example 203, 1-(5-methyl-4-(pyridin-4-ylamino)-5H-chromeno[4,3-c]pyridin-8-yl)pyrrolidin-2-one] | > 1000 nM | > 1000 nM
CNC(=O)Nc1cncc(Nc2cc3c(cn2)-c2ccc(N4CCCC4=O)cc2OC3C)c1 (centres unmarked) [Example 99, 1-methyl-3-(5-((5-methyl-8-(2-oxopyrrolidin-1-yl)-5H-chromeno[4,3-c]pyridin-3-yl)amino)pyridin-3-yl)urea] | 10 to 100 nM | 1 to 10 nM
COCCC(=O)N1CCN(c2cncc(Nc3cc4c(cn3)-c3ccc(N5CCCC5=O)cc3OC4)c2)CC1 [Example 168, 1-(3-((5-(4-(3-methoxypropanoyl)piperazin-1-yl)pyridin-3-yl)amino)-5H-chromeno[4,3-c]pyridin-8-yl)pyrrolidin-2-one] | 10 to 100 nM | 10 to 100 nM
COCCC(=O)N1CCN(c2cncc(Nc3cc4c(cn3)-c3ccc(N5CCCC5=O)cc3OC4C)c2)CC1 (centres unmarked) [Example 169, 1-(3-((5-(4-(3-methoxypropanoyl)piperazin-1-yl)pyridin-3-yl)amino)-5-methyl-5H-chromeno[4,3-c]pyridin-8-yl)pyrrolidin-2-one] | 10 to 100 nM | 1 to 10 nM
CC1Oc2cc(N3CCCC3=O)ccc2-c2cnc(Nc3cncc(NC(=O)c4cccc5c4COB5O)c3)cc21 (centres unmarked) [Example 118, 1-hydroxy-N-(5-((5-methyl-8-(2-oxopyrrolidin-1-yl)-5H-chromeno[4,3-c]pyridin-3-yl)amino)pyridin-3-yl)-1,3-dihydrobenzo[c][1,2]oxaborole-4-carboxamide] | 10 to 100 nM | 1 to 10 nM

More lines, now with the values ahead:

IC50 (PIP4K2B) | IC50 (PIP4K 2A) | SMILES
10 to 100 nM | 1 to 10 nM | CC1Oc2cc(N3CCCC3=O)ccc2-c2cnc(Nc3cncc(NC(=O)C4CCNC4=O)c3)cc21 (centres unmarked) [Example 104, N-(5-((5-methyl-8-(2-oxopyrrolidin-1-yl)-5H-chromeno[4,3-c]pyridin-3-yl)amino)pyridin-3-yl)-2-oxopyrrolidine-3-carboxamide]
1 to 10 nM | ≤ 1 nM | CC1(C)Oc2cc(N3CCCC3=O)c(F)cc2-c2cnc(Nc3cnc4c(c3)N3C(=O)CC[C@H]3CO4)nc21 [Example 190, (S)-2-((9-fluoro-5,5-dimethyl-8-(2-oxopyrrolidin-1-yl)-5H-chromeno[3,4-d]pyrimidin-3-yl)amino)-6,6a,7,8-tetrahydro-9H-pyrido[2,3-b]pyrrolo[1,2-d][1,4]oxazin-9-one]
1 to 10 nM | ≤ 1 nM | CC1(C)Oc2cc(N3CCCC3=O)c(F)cc2-c2cnc(Nc3cnc4c(c3)N3C(=O)CC[C@@H]3CO4)cc21 [Example 184, (R)-2-((9-fluoro-5,5-dimethyl-8-(2-oxopyrrolidin-1-yl)-5H-chromeno[4,3-c]pyridin-3-yl)amino)-6,6a,7,8-tetrahydro-9H-pyrido[2,3-b]pyrrolo[1,2-d][1,4]oxazin-9-one]
10 to 100 nM | 1 to 10 nM | CC1Oc2cc(N3CCCC3=O)c(F)cc2-c2cnc(Nc3cncc(N4CCNC4=O)c3)cc21 (centres unmarked) [Example 151, 1-(5-((9-fluoro-5-methyl-8-(2-oxopyrrolidin-1-yl)-5H-chromeno[4,3-c]pyridin-3-yl)amino)pyridin-3-yl)imidazolidin-2-one]
10 to 100 nM | 1 to 10 nM | CC1Oc2cc(N3CCCC3=O)c(F)cc2-c2cnc(Nc3cnc4c(c3)OCCO4)cc21 (centres unmarked) [Example 166, 1-(3-((2,3-dihydro-[1,4]dioxino[2,3-b]pyridin-7-yl)amino)-9-fluoro-5-methyl-5H-chromeno[4,3-c]pyridin-8-yl)pyrrolidin-2-one]
> 1000 nM | 1 to 10 nM | CC1Oc2cc(N3CCCC3=O)ccc2-c2cnc(Nc3cnc4cccc(S(C)(=O)=O)c4c3)cc21 (centres unmarked) [Example 92, 1-(5-methyl-3-((5-(methylsulfonyl)quinolin-3-yl)amino)-5H-chromeno[4,3-c]pyridin-8-yl)pyrrolidin-2-one]
10 to 100 nM | 10 to 100 nM | CC1Oc2cc(N3CCCC3=O)ccc2-c2cnc(Nc3cncc(NC(=O)c4ccc(F)cc4)c3)cc21 (centres unmarked) [Example 119, 4-fluoro-N-(5-((5-methyl-8-(2-oxopyrrolidin-1-yl)-5H-chromeno[4,3-c]pyridin-3-yl)amino)pyridin-3-yl)benzamide]
